One data set has as its system MDA-MB-231 xenograft. Kind of data set: Mouse xenograft study, MDA-MB-231 breast cancer. The data set is classed as in vivo. The conditions noted are these: MDA-MB-231 breast cancer xenograft, nude mice.
The subject of the next data set is BT474 xenograft. Description: Mouse xenograft study, BT474 breast cancer. The data set is classed as in vivo, nude mice. The settings on record: BT474 breast cancer xenograft, nude mice. How it is done:
(§1) Mouse Xenograft Studies: Xenograft studies adapted from a previous published protocol (Wu et al, Cancer Res. 2008 Oct. 15; 68(20):8393-9). Female BALB/c nude (nu/nu) mice (5-8 weeks) were obtained from Lasco (Industrial Park, Tai-Ping Area, Taichung City, Taiwan). The animals were maintained under specific pathogen-free conditions, and food and water were supplied ad libitum. Housing and all procedures involving animals were performed according to protocols approved by the IACUC in DCB. Nude mice were inoculated with 17-β-estradiol pellets 72 to 96 h before implantation of BT-474 cells. For subcutaneous implantation of BT-474 cells, cells (1×10^7 in matrix gel/animal) were injected subcutaneously into the right subaxillary region. Treatment started when average tumor volume reached about 200 mm^3; mice were treated (p.o., QD/28 cycles in total) with vehicle A (0.5% methylcellulose), or candidate compounds formulated in vehicle A (10-50 mg/kg body weight). Perpendicular diameter measurement of each tumor were made with digital calipers and the volume of the tumor calculated using formula (L×W×W)/2, in which L and W represent the length and the width, respectively. Body weights were measured three times weekly.
(§2) The in vivo effectiveness of contemplated compounds in the reduction of tumor volume in nude mice is readily apparent.
(§3) Development of resistance to treatment in advanced stage tumors is a well known phenomenon. Activity of select Hec1 inhibitor in such late stage tumors was determined by re-dosing of BT474 xenografted animals that had previously subjected to 35 days of treatment with 110095 (compound 27 of Table 1). Re-treatment with 110095 was starting on day 42 and continued for 21 days.

For the next data set, the system named is Huh-7 xenograft. Kind of data set: Mouse xenograft study, Huh-7 liver cancer. The data set is classed as in vivo. The conditions noted are these: Huh-7 liver cancer xenograft, nude mice.
A short description of data set [1]: Body weight in mouse xenograft studies. The data set is classed as in vivo, nude mice. The conditions noted are these: xenograft studies FIG. 7A-7D, nude mice. How it is done: as §1, §2, §3
The next data set concerns MDA-MB-468. Description: Antiproliferation assay (MTS), MDA-MB-468 cells. The data set is classed as cell-based. The conditions noted are these: Homo sapiens, MDA-MB-468, 96 h, Table 2, read-out: Antiproliferative IC50 MDA-MB-468. In short, it runs like this:
(§4)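 Cells seeded after overnight attachment were treated in triplicate for 96 h at 37 °C, 5% CO2, final DMSO below 1%. Viability read by MTS absorbance; concentration-response curves fitted by linear regression against DMSO controls.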

The subject of a further data set is MDA-MB-231. Kind of data set: Antiproliferation assay (MTS), MDA-MB-231 cells. The data set is classed as cell-based. The settings on record: Homo sapiens, MDA-MB-231, 96 h, read-out: Antiproliferative IC50 MDA-MB-231, Table 2. The essentials:
as §4

The next data set has as its system cancer cells. Description: DNA content analysis (propidium iodide, FACS). The data set is classed as cell-based. How it is done: DNA Content Analysis: Cells were plated in a 10-cm culture plate and cultured overnight. Cells were incubated with the compound for the indicated time and collected at the indicated time points. Cells were fixed with 70% ethanol overnight, stained with propidium iodide solution (1.25 mg/ml propidium iodide (Sigma) and 20 μl/ml […] in PBS) and subjected to fluorescence activated cell sorting (FACS). The results were analyzed by Cell Quest software (BD Biosciences, San Jose Calif. 95131 USA).

We go through two compounds from US8999983B2, “Modulators of Hec1 activity and methods therefor” (Taivex Therapeutics Corporation, priority 2011, dated 2015).

pIC50: −log10 of the molar value.

With `COc1ccc(Oc2cc(C)c(-c3csc(NC(=O)c4ccncc4)n3)c(C)c2)cc1` [II-95, N-(4-(4-(4-Methoxyphenoxy)-2,6-dimethylphenyl)thiazol-2-yl)isonicotinamide], the xenograft tumor outgrowth entry in the data set with MDA-MB-231 xenograft, in the data set on BT474 xenograft and with Huh-7 xenograft was “inhibition of xenograft tumor outgrowth” in each case. In data set [1], the body weight entry is “body weight remained constant”.

Regarding `COc1ccc(Oc2cc(C)c(-c3csc(NC(=O)c4ccnc(F)c4)n3)c(C)c2)cc1` [II-98, 2-Fluoro-N-(4-(4-(4-methoxyphenoxy)-2,6-dimethylphenyl)thiazol-2-yl)isonicotinamide], the negative-log IC50 (pIC50) was 7.40 with MDA-MB-468 and 7.70 with MDA-MB-231. For the same compound, in the data set with cancer cells, the “sub-G1 population (apoptotic cells)” value is “increase in the sub-G1 population”.
